Data from US6737383B1, “Herbicidal oxadiazolidines” (priority 1999, dated 2004).

Experiments:
[1] = test system: bedstraw; assay: Test B pre/postemergence bedstraw; type: in vivo, Galium aparine
In short: (§1)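 Herbicidal effect was estimated by eye on a ten-point control scale after plants spent twelve to sixteen days in a greenhouse following soil or foliar treatment. Foliar sprays targeted plants at one to four leaves; all doses were formulated in a non-phytotoxic solvent with surfactant.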

[2] = test system: blackgrass; assay: Test B pre/postemergence blackgrass; type: in vivo, Alopecurus myosuroides
In short: as §1

[3] = test system: surinam grass; assay: Test B pre/postemergence surinam grass; type: in vivo, Brachiaria decumbens
In short: as §1

[4] = test system: cocklebur; assay: Test B pre/postemergence cocklebur; type: in vivo, Xanthium strumarium
In short: as §1

[5] = test system: corn; assay: Test B pre/postemergence corn; type: in vivo, Zea mays
In short: as §1

[6] = test system: crabgrass; assay: Test B pre/postemergence crabgrass; type: in vivo, Digitaria sanguinalis
In short: as §1

[7] = test system: giant foxtail; assay: Test B pre/postemergence giant foxtail; type: in vivo, Setaria faberii
In short: as §1

[8] = test system: morningglory; assay: Test B pre/postemergence morningglory; type: in vivo, Ipomoea hederacea
In short: as §1

[9] = test system: soybean; assay: Test B pre/postemergence soybean; type: in vivo, Glycine max
In short: as §1

[10] = test system: velvetleaf; assay: Test B pre/postemergence velvetleaf; type: in vivo, Abutilon theophrasti
In short: as §1

[11] = test system: wheat; assay: Test B pre/postemergence wheat; type: in vivo, Triticum aestivum
In short: as §1

[12] = test system: wild oat; assay: Test B pre/postemergence wild oat; type: in vivo, Avena fatua
In short: as §1

[13] = test system: purple nutsedge; assay: Test B pre/postemergence purple nutsedge; type: in vivo, Cyperus rotundus
In short: as §1

[14] = test system: rice; assay: Test B flood test rice; type: in vivo, Oryza sativa
In short: (§2)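 Read-out is a visual response score from 0 (no effect) to 10 (complete control), assigned by comparison with untreated controls. Treatment was applied at the 2-leaf stage, and plants stayed in the greenhouse for twelve to sixteen days before scoring.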

[15] = test system: smallflower flatsedge; assay: Test B flood test smallflower flatsedge; type: in vivo, Cyperus difformis
In short: as §2

[16] = test system: duck salad; assay: Test B flood test duck salad; type: in vivo, Heteranthera limosa
In short: as §2

[17] = test system: bamyardgrass; assay: Test B flood test barnyardgrass; type: in vivo, Echinochloa crus-galli
In short: as §2

[18] = Preemergence, Rate 62 g/ha, scale of 0 to 10 where 0 is no effect and 10 is complete control
[19] = Preemergence, Rate 125 g/ha, 0 is no effect, 10 is complete control
[20] = Preemergence, Rate 250 g/ha, scale 0 to 10, 0 is no effect, 10 is complete control
[21] = Preemergence, Rate 500 g/ha, scale of 0 to 10 where 0 is no effect and 10 is complete control
[22] = Rate 62 g/ha, Postemergence, scale of 0 to 10 where 0 is no effect and 10 is complete control
[23] = Rate 125 g/ha, Postemergence, scale 0 to 10
[24] = Rate 500 g/ha, Postemergence, scale 0 to 10
[25] = Rate 62 g/ha, headed Pre-emergence (flood test species), scale 0 to 10 (0 no effect, 10 complete control)
[26] = Rate 125 g/ha, Pre-emergence, flood test species, scale 0 to 10 where 0 is no effect and 10 is complete control
[27] = Rate 250 g/ha, Pre-emergence, flood-test species, scale 0 to 10, 0 is no effect, 10 is complete control
[28] = Rate 500 g/ha, Pre-emergence, flood test species, scale 0 to 10 (0 no effect, 10 complete control)

SMILES: CC(C)N(C(=O)n1oc(=O)n(Cc2ccco2)c1=O)c1ccc(F)cc1 [Compound 207]
- Bedstraw plant response rating [1, 18]: 0
- Bedstraw plant response rating (0 to 10 scale) [1, 19]: 0
- Bedstraw plant response rating [1, 20]: 0
- Plant response rating, Bedstraw [1, 21]: 0
- Bedstraw plant response rating [1, 22]: 0
- Bedstraw plant response rating [1, 23]: 0
- Plant response rating (0 to 10; 0 is no effect, 10 is complete control), Bedstraw ([1]; Rate 250 g/ha, Postemergence): 5
- Bedstraw plant response rating [1, 24]: 5
- Blackgrass plant response rating [2, 18]: 0
- Blackgrass plant response rating (0 to 10 scale) [2, 19]: 0
- Blackgrass plant response rating [2, 20]: 4
- Plant response rating, Blackgrass [2, 21]: 7
- Blackgrass plant response rating [2, 22]: 0
- Blackgrass plant response rating [2, 23]: 2
- Plant response rating (0 to 10; 0 is no effect, 10 is complete control), Blackgrass ([2]; Rate 250 g/ha, Postemergence): 2
- Blackgrass plant response rating [2, 24]: 4
- B. signalgrass plant response rating [3, 18]: 0
- B. signalgrass plant response rating (0 to 10 scale) [3, 19]: 0
- B. signalgrass plant response rating [3, 20]: 0
- Plant response rating, B. signalgrass [3, 21]: 0
- B. signalgrass plant response rating [3, 22]: 0
- B. signalgrass plant response rating ([3]; Rate 125 g/ha, Postemergence, scale 0 (no effect) to 10 (complete control)): 0
- Plant response rating, B. signalgrass ([3]; Rate 250 g/ha, Postemergence, scale 0 to 10, 0 is no effect, 10 is complete control): 0
- B. signalgrass plant response rating ([3]; Rate 500 g/ha, Postemergence, scale 0 to 10, 0 no effect, 10 complete control): 0
- Cocklebur plant response rating [4, 18]: 0
- Cocklebur plant response rating (0 to 10 scale) [4, 19]: 0
- Cocklebur plant response rating [4, 20]: 0
- Plant response rating, Cocklebur [4, 21]: 0
- Cocklebur plant response rating [4, 22]: 0
- Cocklebur plant response rating [4, 23]: 0
- Plant response rating (0 to 10; 0 is no effect, 10 is complete control), Cocklebur ([4]; Rate 250 g/ha, Postemergence): 0
- Cocklebur plant response rating [4, 24]: 3
- Corn plant response rating [5, 18]: 0
- Corn plant response rating (0 to 10 scale) [5, 19]: 0
- Corn plant response rating [5, 20]: 0
- Plant response rating, Corn [5, 21]: 0
- Corn plant response rating [5, 22]: 0
- Corn plant response rating [5, 23]: 0
- Plant response rating (0 to 10; 0 is no effect, 10 is complete control), Corn ([5]; Rate 250 g/ha, Postemergence): 0
- Corn plant response rating [5, 24]: 0
- Crabgrass plant response rating [6, 18]: 0
- Crabgrass plant response rating (0 to 10 scale) [6, 19]: 0
- Crabgrass plant response rating [6, 20]: 3
- Plant response rating, Crabgrass [6, 21]: 4
- Crabgrass plant response rating [6, 22]: 0
- Crabgrass plant response rating [6, 23]: 0
- Plant response rating (0 to 10; 0 is no effect, 10 is complete control), Crabgrass ([6]; Rate 250 g/ha, Postemergence): 2
- Crabgrass plant response rating [6, 24]: 3
- Giant foxtail plant response rating [7, 18]: 3
- Giant foxtail plant response rating (0 to 10 scale) [7, 19]: 6
- Giant foxtail plant response rating [7, 20]: 9
- Plant response rating, Giant foxtail [7, 21]: 10
- Giant foxtail plant response rating [7, 22]: 0
- Giant foxtail plant response rating [7, 23]: 0
- Plant response rating (0 to 10; 0 is no effect, 10 is complete control), Giant foxtail ([7]; Rate 250 g/ha, Postemergence): 1
- Giant foxtail plant response rating [7, 24]: 2
- Morningglory plant response rating [8, 18]: 0
- Morningglory plant response rating (0 to 10 scale) [8, 19]: 0
- Morningglory plant response rating [8, 20]: 0
- Plant response rating, Morningglory [8, 21]: 0
- Morningglory plant response rating [8, 22]: 0
- Morningglory plant response rating [8, 23]: 2
- Plant response rating (0 to 10; 0 is no effect, 10 is complete control), Morningglory ([8]; Rate 250 g/ha, Postemergence): 2
- Morningglory plant response rating [8, 24]: 3
- Soybean plant response rating [9, 18]: 0
- Soybean plant response rating (0 to 10 scale) [9, 19]: 0
- Soybean plant response rating [9, 20]: 0
- Plant response rating, Soybean [9, 21]: 0
- Soybean plant response rating [9, 22]: 1
- Soybean plant response rating [9, 23]: 2
- Plant response rating (0 to 10; 0 is no effect, 10 is complete control), Soybean ([9]; Rate 250 g/ha, Postemergence): 2
- Soybean plant response rating [9, 24]: 5
- Velvetleaf plant response rating [10, 18]: 0
- Velvetleaf plant response rating [10, 20]: 0
- Plant response rating, Velvetleaf [10, 21]: 5
- Velvetleaf plant response rating [10, 22]: 0
- Velvetleaf plant response rating [10, 23]: 1
- Plant response rating (0 to 10; 0 is no effect, 10 is complete control), Velvetleaf ([10]; Rate 250 g/ha, Postemergence): 1
- Wheat plant response rating [11, 18]: 0
- Wheat plant response rating [11, 20]: 0
- Plant response rating, Wheat [11, 21]: 0
- Wheat plant response rating [11, 22]: 0
- Wheat plant response rating [11, 23]: 0
- Plant response rating (0 to 10; 0 is no effect, 10 is complete control), Wheat ([11]; Rate 250 g/ha, Postemergence): 0
- Wild oats plant response rating [12, 18]: 0
- Wild oats plant response rating [12, 20]: 0
- Plant response rating, Wild oats [12, 21]: 0
- Wild oats plant response rating [12, 22]: 0
- Wild oats plant response rating [12, 23]: 0
- Plant response rating (0 to 10; 0 is no effect, 10 is complete control), Wild oats ([12]; Rate 250 g/ha, Postemergence): 0
- Nutsedge plant response rating [13, 18]: 0
- Nutsedge plant response rating (0 to 10 scale) [13, 19]: 0
- Nutsedge plant response rating [13, 20]: 0
- Plant response rating, Nutsedge [13, 21]: 0
- Nutsedge plant response rating [13, 22]: 0
- Nutsedge plant response rating [13, 23]: 0
- Plant response rating (0 to 10; 0 is no effect, 10 is complete control), Nutsedge ([13]; Rate 250 g/ha, Postemergence): 0
- Nutsedge plant response rating [13, 24]: 0
- Rice plant response rating [14, 25]: 0
- Rice plant response rating [14, 26]: 0
- Rice plant response rating [14, 27]: 0
- Rice plant response rating [14, 28]: 0
- S. Flatsedge plant response rating [15, 25]: 0
- S. Flatsedge plant response rating [15, 26]: 0
- S. Flatsedge plant response rating [15, 27]: 0
- S. Flatsedge plant response rating [15, 28]: 0
- Ducksalad plant response rating [16, 25]: 0
- Ducksalad plant response rating [16, 26]: 0
- Ducksalad plant response rating [16, 27]: 0
- Ducksalad plant response rating [16, 28]: 2
- Barnyardgrass plant response rating [17, 25]: 0
- Barnyardgrass plant response rating [17, 26]: 0
- Barnyardgrass plant response rating [17, 27]: 2
- Barnyardgrass plant response rating [17, 28]: 7
